The NIST ThermoML archive (doi:10.1016/j.jct.2011.06.007)
Numbers after ± are expanded uncertainties.

Experiment: activity coefficient (dimensionless); of the first substance listed, at infinite dilution; xn = mol fraction of the nth substance listed
Settings: 318.15 K; 101 kPa; Liquid; Chromatography; x1 = 0

activity coefficient | Structure (SMILES)
29.7 ± 2 | C=CCCCCCCCC [1-decene] + CCCC[N+]1(C)CCCC1.N#C[B-](C#N)(C#N)C#N
10.7 ± 0.7 | C=CCCCCC [1-heptene] + CCCC[N+]1(C)CCCC1.N#C[B-](C#N)(C#N)C#N
3.49 ± 0.24 | C#CCCCCC [1-heptyne] + CCCC[N+]1(C)CCCC1.N#C[B-](C#N)(C#N)C#N
2.53 ± 0.17 | C#CCCCC [1-hexyne] + CCCC[N+]1(C)CCCC1.N#C[B-](C#N)(C#N)C#N
4.93 ± 0.34 | C#CCCCCCC [1-octyne] + CCCC[N+]1(C)CCCC1.N#C[B-](C#N)(C#N)C#N
5.58 ± 0.38 | C=CCCC [1-pentene] + CCCC[N+]1(C)CCCC1.N#C[B-](C#N)(C#N)C#N
27.5 ± 1.9 | CC(C)CC(C)(C)C [2,2,4-trimethylpentane] + CCCC[N+]1(C)CCCC1.N#C[B-](C#N)(C#N)C#N
15.7 ± 1.1 | CCC(C)(C)C [2,2-dimethylbutane] + CCCC[N+]1(C)CCCC1.N#C[B-](C#N)(C#N)C#N
3.32 ± 0.23 | CCC(C)(C)OC [2-methoxy-2-methylbutane] + CCCC[N+]1(C)CCCC1.N#C[B-](C#N)(C#N)C#N
2.37 ± 0.16 | COC(C)(C)C [2-methoxy-2-methylpropane] + CCCC[N+]1(C)CCCC1.N#C[B-](C#N)(C#N)C#N
14.9 ± 1 | CCC(C)CC [3-methylpentane] + CCCC[N+]1(C)CCCC1.N#C[B-](C#N)(C#N)C#N
0.81 ± 0.052 | c1ccccc1 [benzene] + CCCC[N+]1(C)CCCC1.N#C[B-](C#N)(C#N)C#N
1.88 ± 0.13 | CCCCO [butan-1-ol] + CCCC[N+]1(C)CCCC1.N#C[B-](C#N)(C#N)C#N
10.4 ± 0.7 | C1CCCCCC1 [cycloheptane] + CCCC[N+]1(C)CCCC1.N#C[B-](C#N)(C#N)C#N
8.42 ± 0.57 | C1CCCCC1 [cyclohexane] + CCCC[N+]1(C)CCCC1.N#C[B-](C#N)(C#N)C#N
4.09 ± 0.28 | C1=CCCCC1 [cyclohexene] + CCCC[N+]1(C)CCCC1.N#C[B-](C#N)(C#N)C#N
13.5 ± 0.9 | C1CCCCCCC1 [cyclooctane] + CCCC[N+]1(C)CCCC1.N#C[B-](C#N)(C#N)C#N
5.87 ± 0.4 | C1CCCC1 [cyclopentane] + CCCC[N+]1(C)CCCC1.N#C[B-](C#N)(C#N)C#N
65.7 ± 4.5 | CCCCCCCCCC [decane] + CCCC[N+]1(C)CCCC1.N#C[B-](C#N)(C#N)C#N
6.08 ± 0.41 | CC(C)OC(C)C [diisopropyl ether] + CCCC[N+]1(C)CCCC1.N#C[B-](C#N)(C#N)C#N
5.78 ± 0.39 | CCCOCCC [dipropyl ether] + CCCC[N+]1(C)CCCC1.N#C[B-](C#N)(C#N)C#N
1.29 ± 0.08 | CCO [ethanol] + CCCC[N+]1(C)CCCC1.N#C[B-](C#N)(C#N)C#N
1.56 ± 0.1 | CCc1ccccc1 [ethylbenzene] + CCCC[N+]1(C)CCCC1.N#C[B-](C#N)(C#N)C#N
23 ± 1.6 | CCCCCCC [heptane] + CCCC[N+]1(C)CCCC1.N#C[B-](C#N)(C#N)C#N
7.68 ± 0.52 | C=CCCCC [hex-1-ene] + CCCC[N+]1(C)CCCC1.N#C[B-](C#N)(C#N)C#N
16.4 ± 1.1 | CCCCCC [hexane] + CCCC[N+]1(C)CCCC1.N#C[B-](C#N)(C#N)C#N
0.991 ± 0.062 | CO [methanol] + CCCC[N+]1(C)CCCC1.N#C[B-](C#N)(C#N)C#N
11.9 ± 0.8 | CC1CCCCC1 [methylcyclohexane] + CCCC[N+]1(C)CCCC1.N#C[B-](C#N)(C#N)C#N
46.2 ± 3.2 | CCCCCCCCC [nonane] + CCCC[N+]1(C)CCCC1.N#C[B-](C#N)(C#N)C#N
15.4 ± 1.1 | C=CCCCCCC [oct-1-ene] + CCCC[N+]1(C)CCCC1.N#C[B-](C#N)(C#N)C#N

Structure (SMILES) | activity coefficient
Cc1ccccc1C [1,2-dimethylbenzene] + CCCC[N+]1(C)CCCC1.N#C[B-](C#N)(C#N)C#N | 1.34 ± 0.09
Cc1cccc(C)c1 [1,3-dimethylbenzene] + CCCC[N+]1(C)CCCC1.N#C[B-](C#N)(C#N)C#N | 1.54 ± 0.1
Cc1ccc(C)cc1 [1,4-dimethylbenzene] + CCCC[N+]1(C)CCCC1.N#C[B-](C#N)(C#N)C#N | 1.46 ± 0.1
CC(C)=O [acetone] + CCCC[N+]1(C)CCCC1.N#C[B-](C#N)(C#N)C#N | 0.439 ± 0.035
CCOCC [diethyl ether] + CCCC[N+]1(C)CCCC1.N#C[B-](C#N)(C#N)C#N | 2.32 ± 0.16

Same assay, conditions: 328.15 K; 101 kPa; Liquid; Chromatography; x1 = 0

activity coefficient | Structure (SMILES)
28.3 ± 1.9 | C=CCCCCCCCC [1-decene] + CCCC[N+]1(C)CCCC1.N#C[B-](C#N)(C#N)C#N
10.2 ± 0.7 | C=CCCCCC [1-heptene] + CCCC[N+]1(C)CCCC1.N#C[B-](C#N)(C#N)C#N
3.5 ± 0.24 | C#CCCCCC [1-heptyne] + CCCC[N+]1(C)CCCC1.N#C[B-](C#N)(C#N)C#N
2.56 ± 0.17 | C#CCCCC [1-hexyne] + CCCC[N+]1(C)CCCC1.N#C[B-](C#N)(C#N)C#N
4.9 ± 0.33 | C#CCCCCCC [1-octyne] + CCCC[N+]1(C)CCCC1.N#C[B-](C#N)(C#N)C#N
5.32 ± 0.36 | C=CCCC [1-pentene] + CCCC[N+]1(C)CCCC1.N#C[B-](C#N)(C#N)C#N
25.4 ± 1.7 | CC(C)CC(C)(C)C [2,2,4-trimethylpentane] + CCCC[N+]1(C)CCCC1.N#C[B-](C#N)(C#N)C#N
14 ± 1 | CCC(C)(C)C [2,2-dimethylbutane] + CCCC[N+]1(C)CCCC1.N#C[B-](C#N)(C#N)C#N
3.34 ± 0.23 | CCC(C)(C)OC [2-methoxy-2-methylbutane] + CCCC[N+]1(C)CCCC1.N#C[B-](C#N)(C#N)C#N
2.39 ± 0.16 | COC(C)(C)C [2-methoxy-2-methylpropane] + CCCC[N+]1(C)CCCC1.N#C[B-](C#N)(C#N)C#N
13.8 ± 0.9 | CCC(C)CC [3-methylpentane] + CCCC[N+]1(C)CCCC1.N#C[B-](C#N)(C#N)C#N
0.816 ± 0.053 | c1ccccc1 [benzene] + CCCC[N+]1(C)CCCC1.N#C[B-](C#N)(C#N)C#N
1.67 ± 0.11 | CCCCO [butan-1-ol] + CCCC[N+]1(C)CCCC1.N#C[B-](C#N)(C#N)C#N

Structure (SMILES) | activity coefficient
Cc1ccccc1C [1,2-dimethylbenzene] + CCCC[N+]1(C)CCCC1.N#C[B-](C#N)(C#N)C#N | 1.36 ± 0.09
Cc1cccc(C)c1 [1,3-dimethylbenzene] + CCCC[N+]1(C)CCCC1.N#C[B-](C#N)(C#N)C#N | 1.56 ± 0.1
Cc1ccc(C)cc1 [1,4-dimethylbenzene] + CCCC[N+]1(C)CCCC1.N#C[B-](C#N)(C#N)C#N | 1.49 ± 0.1
CC(C)=O [acetone] + CCCC[N+]1(C)CCCC1.N#C[B-](C#N)(C#N)C#N | 0.441 ± 0.035
